We go through eight compounds from US20240216357A1 (SICHUAN HUIYU PHARMACEUTICAL CO., LTD., priority 2021, published 2024).

Structures can show the parent of a compound that is named as a salt. Where two headings read alike, the source gives them in different places.

The target of one data set is LSD1 (Homo sapiens (Human), UniProt O60341). The data set can be described thus: LSD1 enzyme activity detection (HTRF). The format is biochemical. As to conditions: HTRF, H3K4me1 substrate; read-out: Inhibition of enzymatic activity of LSD1 IC50. Background: TR-FRET usually uses a lanthanide donor and a delayed reading to cut background.
A further data set has as its system NCI-H1417 cells. Nature of the data set: In vitro cell proliferation detection (CellTiter-Glo, 7 days). As to conditions: Homo sapiens. Format: cell-based. In general terms: ATP-based viability assays read luminescence as a measure of living cells.
A further data set can be described thus: Caco-2 permeability test. To be noted: human, Caco-2. On the technique in general: Passage across Caco-2 layers is used to estimate intestinal permeability.
For data set [1], the target named is voltage-gated potassium ion channel hERG (Homo sapiens (Human), UniProt Q12809). Nature of the data set: hERG inhibition test (manual patch-clamp). As to conditions: read-out: hERG IC50; manual patch-clamp.
The next data set deals with CYP3A4 (Homo sapiens (Human), UniProt P08684). Nature of the data set: CYP 450 enzyme inhibition test (mixed human liver microsomes, LC-MS/MS). To be noted: read-out: CYP3A4-T IC50; mixed human liver microsomes, NADPH, CYP3A4-T probe substrate.
Setting [2] is: 168 h, NCI-H1417 cells, 7 days, CellTiter-Glo, read-out: NCI-H1417 proliferation inhibition IC50.

CYP3A4, sequence (P08684 whole entry): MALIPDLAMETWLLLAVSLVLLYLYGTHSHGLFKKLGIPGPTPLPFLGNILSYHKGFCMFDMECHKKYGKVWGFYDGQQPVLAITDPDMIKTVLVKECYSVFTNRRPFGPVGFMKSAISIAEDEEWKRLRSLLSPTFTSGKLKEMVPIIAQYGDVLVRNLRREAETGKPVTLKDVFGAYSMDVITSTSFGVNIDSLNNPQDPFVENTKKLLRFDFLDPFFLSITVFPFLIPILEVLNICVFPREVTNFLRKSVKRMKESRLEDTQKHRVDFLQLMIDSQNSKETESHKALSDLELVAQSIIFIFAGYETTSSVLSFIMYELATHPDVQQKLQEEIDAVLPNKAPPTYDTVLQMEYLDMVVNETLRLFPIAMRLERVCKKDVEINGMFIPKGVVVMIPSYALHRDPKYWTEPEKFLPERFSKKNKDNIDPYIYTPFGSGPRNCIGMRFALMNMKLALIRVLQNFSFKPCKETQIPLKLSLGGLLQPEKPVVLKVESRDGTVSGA
voltage-gated potassium ion channel hERG, sequence (Q12809 whole entry): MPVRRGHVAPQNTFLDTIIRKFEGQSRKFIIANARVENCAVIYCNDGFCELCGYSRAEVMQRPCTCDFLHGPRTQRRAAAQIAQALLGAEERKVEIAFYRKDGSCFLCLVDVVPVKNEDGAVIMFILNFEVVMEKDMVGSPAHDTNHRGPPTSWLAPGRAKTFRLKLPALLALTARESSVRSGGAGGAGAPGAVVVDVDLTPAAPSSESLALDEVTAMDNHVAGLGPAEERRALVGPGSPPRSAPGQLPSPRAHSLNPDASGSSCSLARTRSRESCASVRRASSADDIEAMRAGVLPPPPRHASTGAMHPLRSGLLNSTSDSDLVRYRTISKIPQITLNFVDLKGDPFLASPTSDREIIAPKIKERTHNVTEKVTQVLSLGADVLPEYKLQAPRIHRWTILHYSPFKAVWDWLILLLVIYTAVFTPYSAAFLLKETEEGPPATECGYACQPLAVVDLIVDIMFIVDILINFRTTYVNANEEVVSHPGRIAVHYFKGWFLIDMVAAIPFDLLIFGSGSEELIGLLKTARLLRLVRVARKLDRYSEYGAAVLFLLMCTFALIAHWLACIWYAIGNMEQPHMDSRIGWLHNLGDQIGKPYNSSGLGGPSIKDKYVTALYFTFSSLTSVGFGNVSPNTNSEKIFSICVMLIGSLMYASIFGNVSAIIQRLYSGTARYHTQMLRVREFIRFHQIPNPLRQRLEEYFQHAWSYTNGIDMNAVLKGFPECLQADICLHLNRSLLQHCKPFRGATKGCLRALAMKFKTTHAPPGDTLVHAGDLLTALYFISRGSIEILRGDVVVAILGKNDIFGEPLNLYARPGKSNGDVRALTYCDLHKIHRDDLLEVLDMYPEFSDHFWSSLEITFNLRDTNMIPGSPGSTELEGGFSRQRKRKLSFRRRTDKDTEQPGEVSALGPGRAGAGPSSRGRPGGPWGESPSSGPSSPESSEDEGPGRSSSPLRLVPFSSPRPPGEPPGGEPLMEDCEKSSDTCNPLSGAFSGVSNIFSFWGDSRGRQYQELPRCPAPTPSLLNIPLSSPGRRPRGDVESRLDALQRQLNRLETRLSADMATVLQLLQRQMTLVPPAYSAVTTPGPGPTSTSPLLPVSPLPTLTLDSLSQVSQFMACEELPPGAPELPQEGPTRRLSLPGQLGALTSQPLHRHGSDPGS

In the case of `Cc1ccc(-c2nc(CN[C@@H]3C[C@H]3c3ccc(F)cc3)cc(C(=O)NC3CCOCC3)n2)cc1O` [Example 236], the IC50 on LSD1 stood at 21.7 nM; in the data set on NCI-H1417 cells (setting [2]), 2.82 nM; in data set [1], 5400 nM. The Papp A→B (in general, the apparent permeability from the apical to the basolateral side of a cell layer) at 120 min in the data set “Caco-2 permeability test” is 1.44 ×10⁻⁶ cm/s. Further, in the data set “Caco-2 permeability test”, the Papp B→A (as a rule, how fast a substance crosses the layer from the basolateral side) at 120 min was 3.99 ×10⁻⁶ cm/s. The efflux ratio – broadly, the permeability from basolateral to apical divided by that in the opposite direction, in the common usage – at 120 min in the data set “Caco-2 permeability test” is 2.76.
As for `COc1ccc(-c2cnc(N3CC4CC3CC4N)c(C#N)c2-c2ccc(C#N)c(F)c2)cc1O` (centres unmarked) [Example 73, 2-(5-amino-2-azabicyclo [2.2.1]heptane-2-yl)-4-(4-cyano-3-fluorophenyl)-5-(3-hydroxy-4-methoxyphenyl) nicotinitrile], the IC50 came to 1.9 ± 0.4 nM on LSD1, 1.61 nM with NCI-H1417 cells (setting [2]) and 7590 nM on CYP3A4.
Regarding `CS(=O)(=O)N1CCN(C(=O)c2cc(CN[C@@H]3C[C@H]3c3ccc(F)cc3)nc(-c3ccc(-n4cccn4)cc3)n2)CC1` [Example 2, (2-(4-(1H-pyrazol-1-yl)phenyl)-6-((((1R,2S)-2-(4-fluorophenyl)cyclopropyl)amino)methyl)pyrimidin-4-yl)(4-(methylsulfonyl)piperazin-1-yl)methanone], the IC50 on LSD1 turned out to be 17.9 ± 3.2 nM. Further, the IC50 in the data set with NCI-H1417 cells (setting [2]) is 0.73 nM. Besides, in “Caco-2 permeability test”, the Papp A→B at 120 min is 15 ×10⁻⁶ cm/s, the basolateral-to-apical permeability (Papp B→A) at 120 min is 15 ×10⁻⁶ cm/s and the efflux ratio at 120 min worked out at 1. In addition, in data set [1], the IC50 came out at 2580 nM.
On to `COc1ccc(-c2c(O)cc(N3CCC(N)CC3)nc2-c2ccc(C#N)c(F)c2)cc1F` [Example 11, 4-(6-(4-aminopiperidin-1-yl)-3-(3-fluoro-4-methoxyphenyl)-4-hydroxypyridin-2-yl)-2-fluoroben zonitrile formate], for which the IC50 on LSD1 is 2.9 ± 0.28 nM; with NCI-H1417 cells (setting [2]), 13 nM; in data set [1] it was above 30000 nM. In addition, the Papp A→B at 120 min in the data set “Caco-2 permeability test” turned out to be 3.66 ×10⁻⁶ cm/s. Moreover, in the data set “Caco-2 permeability test”, the Papp B→A at 120 min turned out to be 27.2 ×10⁻⁶ cm/s. Besides, the efflux ratio at 120 min in the data set “Caco-2 permeability test” amounted to 7.42.
As for `CC1CN(C(=O)c2cc(CN[C@@H]3C[C@H]3c3ccc(F)cc3)nc(-c3ccc(C#N)cc3)n2)CC(C)N1` (stereo partly drawn) [Example 239, 4-(4-(3,5-dimethyl-piperazine-1-carbonyl)-6-((((1R,2S)-2-(4-fluoro-phenyl)cyclopropyl)amino)methyl)pyrimidin-2-yl) benzonitrile], the IC50 on LSD1 is 4.8 ± 1.8 nM; in the data set with NCI-H1417 cells (setting [2]), 0.986 nM; at CYP3A4 it was above 10000 nM.
Take `O=C(NC1CCOCC1)c1cc(CN[C@@H]2C[C@H]2c2ccc(F)cc2)nc(-c2ccc(N3CCOCC3)cc2)n1` [Example 246, 6-(((1R,2S)-2-(4-fluorophenyl)cyclopropyl)amino)methyl)-2-(4-morpho-linophenyl)-N-(tetrahydro-2H-pyran-4-yl)pyrimidine-4-carboxamide hydrochloride]: at LSD1, the IC50 stood at 18.1 nM. In addition, the IC50 with NCI-H1417 cells (setting [2]) turned out to be 1.78 nM. The Cl in the data set “Rat PK test (IV and PO)” (Male SD rats) was determined as 39.6 mL/min/kg. In the data set “Rat PK test (IV and PO)” (Male SD rats, PO vs IV), this compound came in with an F of 9.54%. In the data set “Rat PK test (IV and PO)” (male, SD, rat, plasma), the AUC(0-inf) (usually the area under the concentration-time curve extrapolated to infinity) worked out at 265 ng·h/mL; the Cmax – broadly, the peak of the concentration-time curve – worked out at 56.2 ng/mL; the half-life (commonly how long it takes for the measured level to halve) was 4.96 h. This compound also displayed a Vd in “Rat PK test (IV and PO)” (male, SD, rat, plasma, intravenous) of 4.22 L/kg. Moreover, in “Caco-2 permeability test”, the Papp A→B at 120 min turned out to be 3.59 ×10⁻⁶ cm/s, the Papp B→A at 120 min worked out at 3.36 ×10⁻⁶ cm/s and the efflux ratio at 120 min was found to be 0.96. Besides, the IC50 in data set [1] worked out at 8550 nM.
Consider `COc1ccc(-c2c(-c3ccc(C#N)c(F)c3)nc(N3CCC(N)CC3)n3ccnc23)cc1O` [Example 124, 4-(5-(4-aminopiperidin-1-yl)-8-3-hydroxy-4-(methoxyphenyl)imidazolo[1,2-c]pyrimidin-7-yl)-2-fluorobenzonitrile], for which the IC50 was 0.08 ± 0.03 nM on LSD1, 0.163 nM with NCI-H1417 cells (setting [2]) and above 30000 nM in data set [1]. Also, the Papp A→B at 120 min in the data set “Caco-2 permeability test” turned out to be 1.73 ×10⁻⁶ cm/s. Besides, the Papp B→A at 120 min in the data set “Caco-2 permeability test” stood at 24.7 ×10⁻⁶ cm/s. In addition, the efflux ratio at 120 min in the data set “Caco-2 permeability test” is 14.3.
On to `COc1ccc(-c2c(-c3ccc(C#N)c(F)c3)nc(N3CCC(N)CC3)c3c2OCC(=O)N3)cc1O` [Example 280, 4-(5-(4-aminopiperidin-1-yl)-8-(3-hydroxy-4-methoxyphenyl)-3-oxo-3,4-dihydro-2H-pyridine[4,3-b][1,4]oxazin-7-yl)-2-fluorobenzonitrile hydrochloride], for which the IC50 is 2.7 ± 1 nM in the data set on NCI-H1417 cells (NCI-H1417, 168 h, read-out: NCI-H1417 proliferation inhibition IC50(nM)) and above 10000 nM at CYP3A4.
